In ChEMBL document CHEMBL1128186, “Steroidal spiro-gamma-lactones that inhibit 17 beta-hydroxysteroid dehydrogenase activity in human placental microsomes” (J Med Chem, 1995) one finds inhibition data, which are given here for nine compounds.

The nature of the assay: The compound was tested at a concentration of 1 uM for inhibitory activity against 17 beta-hydroxysteroid dehydrogenase from human placental microsomes.
As for `C[C@]12CC[C@@]3(CCC(=O)O3)CC1CC[C@@H]1[C@@H]2CC[C@@]2(C)[C@H]1CC[C@@]21CCC(=O)O1` (some centres undefined), the inhibition (in general, the change of the read-out against control, counted positive when it falls) is 11%. The same measure for `C[C@]12C=CC(=O)C=C1CCC1C2CC[C@@]2(C)C1CC[C@@]21CCC(=O)O1` (some centres undefined): 6%. `C[C@]12CC[C@@H]3c4ccc(O)cc4CC[C@H]3[C@@H]1CC[C@@]21CCC(=O)O1`: the inhibition is 81%. Compound `C[C@]12CC[C@@H]3c4ccc(OCc5ccccc5)cc4CC[C@H]3[C@@H]1CC[C@@]21CCC(=O)O1` showed an inhibition of 11%. The same measure for `C[C@]12CCC(=O)C=C1CC[C@@H]1[C@@H]2CC[C@@]2(C)[C@H]1CC[C@@]21CCC(=O)O1`: 3%; for `COc1ccc2c(c1)CC[C@@H]1[C@@H]2CC[C@@]2(C)[C@H]1CC[C@@]21CCC(=O)O1`: 55%; for `C[C@]12CCC(=O)C=C1C(=O)CC1C2CC[C@@]2(C)C1CC[C@@]21CCC(=O)O1` (some centres undefined): 3%.

`C[C@]12CCC(=O)CC1C(=O)C[C@@H]1[C@@H]2CC[C@@]2(C)[C@H]1CC[C@@]21CCC(=O)O1` (some centres undefined) had an inhibition of 28%.

For `C[C@]12CCC(=O)CC1CC[C@@H]1[C@@H]2CC[C@@]2(C)[C@H]1CC[C@@]21CCC(=O)O1` (some centres undefined), the inhibition was determined as 25%.
